Values of other authors as cited in publication PMC6832352, “Synthesis and Glycosidase Inhibition of Broussonetine M and Its Analogues” (Molecules, 2019).
Read-outs that look alike come from different tables or passages of the source.

How the values were obtained:
Rat intestinal maltase = conditions: cited from earlier work
α-Mannosidase = molecular target: T1, α-Mannosidase (Canavalia ensiformis, UniProt C0HJB3); conditions: Jack bean, cited from earlier work
T1 construct: purchased Sigma-Aldrich Chemical Co
T1 sequence (C0HJB3 1-981): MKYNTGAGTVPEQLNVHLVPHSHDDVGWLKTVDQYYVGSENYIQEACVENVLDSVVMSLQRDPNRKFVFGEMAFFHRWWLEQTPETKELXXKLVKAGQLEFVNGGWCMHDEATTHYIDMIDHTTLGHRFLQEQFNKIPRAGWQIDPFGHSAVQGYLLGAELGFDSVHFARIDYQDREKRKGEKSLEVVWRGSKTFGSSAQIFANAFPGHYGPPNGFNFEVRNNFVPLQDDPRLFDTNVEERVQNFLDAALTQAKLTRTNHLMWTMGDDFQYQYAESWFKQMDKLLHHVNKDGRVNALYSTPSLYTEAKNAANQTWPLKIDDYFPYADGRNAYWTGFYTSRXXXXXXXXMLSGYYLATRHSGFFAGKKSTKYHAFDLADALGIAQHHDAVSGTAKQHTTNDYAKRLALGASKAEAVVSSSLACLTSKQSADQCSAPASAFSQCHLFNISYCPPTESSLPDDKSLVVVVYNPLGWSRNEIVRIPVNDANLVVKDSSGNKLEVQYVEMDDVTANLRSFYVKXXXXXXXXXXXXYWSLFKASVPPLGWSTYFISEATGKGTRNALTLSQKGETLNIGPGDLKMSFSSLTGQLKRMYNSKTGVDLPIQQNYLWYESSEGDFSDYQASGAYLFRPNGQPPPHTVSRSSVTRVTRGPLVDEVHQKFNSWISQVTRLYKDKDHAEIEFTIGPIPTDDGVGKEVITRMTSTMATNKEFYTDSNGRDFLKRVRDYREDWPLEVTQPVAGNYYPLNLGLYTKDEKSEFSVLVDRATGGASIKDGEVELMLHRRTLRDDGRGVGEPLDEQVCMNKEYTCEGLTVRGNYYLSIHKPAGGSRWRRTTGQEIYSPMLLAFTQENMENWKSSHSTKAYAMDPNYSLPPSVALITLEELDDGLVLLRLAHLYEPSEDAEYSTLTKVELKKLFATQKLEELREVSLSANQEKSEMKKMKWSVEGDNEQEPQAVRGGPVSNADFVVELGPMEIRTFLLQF

α-Galactosidase = molecular target: T2, α-Galactosidase (Coffea arabica, UniProt Q42656); conditions: Coffee beans, cited from earlier work
T2 construct: purchased Sigma-Aldrich Chemical Co
T2 sequence (Q42656 16-378): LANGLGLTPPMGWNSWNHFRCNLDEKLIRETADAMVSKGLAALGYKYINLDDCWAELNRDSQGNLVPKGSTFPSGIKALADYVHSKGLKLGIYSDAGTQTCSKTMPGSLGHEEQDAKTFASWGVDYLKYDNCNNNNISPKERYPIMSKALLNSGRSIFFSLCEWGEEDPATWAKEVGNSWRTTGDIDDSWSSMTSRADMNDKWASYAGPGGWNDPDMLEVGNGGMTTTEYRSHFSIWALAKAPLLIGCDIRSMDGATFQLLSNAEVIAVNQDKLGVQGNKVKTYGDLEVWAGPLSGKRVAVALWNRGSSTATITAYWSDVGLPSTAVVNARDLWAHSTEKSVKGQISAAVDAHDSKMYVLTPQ

β-Glucuronidase = molecular target: T3, β-Glucuronidase (Escherichia coli, UniProt P05804); set-up: method as in PMID 22928735; conditions: E.coli, cited from earlier work; for inhibition %: at 1000 μM
T3 construct: purchased Sigma-Aldrich Chemical Co
T3 sequence (P05804 whole entry): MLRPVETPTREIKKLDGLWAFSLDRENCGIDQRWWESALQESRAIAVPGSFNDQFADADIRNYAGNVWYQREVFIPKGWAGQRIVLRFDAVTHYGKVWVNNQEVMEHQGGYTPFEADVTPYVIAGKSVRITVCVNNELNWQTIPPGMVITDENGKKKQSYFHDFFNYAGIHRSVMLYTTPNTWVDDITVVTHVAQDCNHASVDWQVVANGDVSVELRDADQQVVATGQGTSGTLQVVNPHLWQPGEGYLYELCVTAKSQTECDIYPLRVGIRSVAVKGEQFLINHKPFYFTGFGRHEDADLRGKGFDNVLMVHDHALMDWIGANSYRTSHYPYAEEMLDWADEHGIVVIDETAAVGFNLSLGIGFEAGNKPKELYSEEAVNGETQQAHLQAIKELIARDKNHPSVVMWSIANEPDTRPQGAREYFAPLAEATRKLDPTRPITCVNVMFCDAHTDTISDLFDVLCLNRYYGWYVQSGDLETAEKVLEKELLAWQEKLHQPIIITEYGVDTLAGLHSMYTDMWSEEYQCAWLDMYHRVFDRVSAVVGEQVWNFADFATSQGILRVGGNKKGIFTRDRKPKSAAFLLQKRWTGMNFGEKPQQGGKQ

β-Glucosidase [1] = molecular target: T4, β-Glucosidase (Bos taurus, UniProt F1MNT6); conditions: Bovine liver, cited from earlier work
T4 sequence (F1MNT6 1-469): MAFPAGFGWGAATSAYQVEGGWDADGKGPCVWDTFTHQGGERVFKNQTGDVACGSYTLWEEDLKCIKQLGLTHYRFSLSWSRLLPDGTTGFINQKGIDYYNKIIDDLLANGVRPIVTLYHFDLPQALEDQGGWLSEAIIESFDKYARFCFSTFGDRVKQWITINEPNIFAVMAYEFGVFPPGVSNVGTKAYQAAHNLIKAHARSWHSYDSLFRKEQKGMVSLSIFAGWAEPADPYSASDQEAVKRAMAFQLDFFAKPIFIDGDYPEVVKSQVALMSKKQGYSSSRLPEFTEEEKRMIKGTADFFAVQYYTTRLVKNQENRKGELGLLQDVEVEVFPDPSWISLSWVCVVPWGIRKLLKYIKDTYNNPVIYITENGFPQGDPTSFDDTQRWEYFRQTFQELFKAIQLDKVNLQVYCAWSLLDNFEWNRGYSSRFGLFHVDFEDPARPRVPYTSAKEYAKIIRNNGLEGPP

β-Galactosidase = conditions: β-Galactosidase, Bovine liver, cited from earlier work
α-Glucosidase [2] = molecular target: T5, α-Glucosidase (Saccharomyces cerevisiae, UniProt P53341); conditions: Yeast, cited from earlier work; for inhibition %: at 1000 μM
T5 construct: purchased Sigma-Aldrich Chemical Co
T5 sequence (P53341 whole entry): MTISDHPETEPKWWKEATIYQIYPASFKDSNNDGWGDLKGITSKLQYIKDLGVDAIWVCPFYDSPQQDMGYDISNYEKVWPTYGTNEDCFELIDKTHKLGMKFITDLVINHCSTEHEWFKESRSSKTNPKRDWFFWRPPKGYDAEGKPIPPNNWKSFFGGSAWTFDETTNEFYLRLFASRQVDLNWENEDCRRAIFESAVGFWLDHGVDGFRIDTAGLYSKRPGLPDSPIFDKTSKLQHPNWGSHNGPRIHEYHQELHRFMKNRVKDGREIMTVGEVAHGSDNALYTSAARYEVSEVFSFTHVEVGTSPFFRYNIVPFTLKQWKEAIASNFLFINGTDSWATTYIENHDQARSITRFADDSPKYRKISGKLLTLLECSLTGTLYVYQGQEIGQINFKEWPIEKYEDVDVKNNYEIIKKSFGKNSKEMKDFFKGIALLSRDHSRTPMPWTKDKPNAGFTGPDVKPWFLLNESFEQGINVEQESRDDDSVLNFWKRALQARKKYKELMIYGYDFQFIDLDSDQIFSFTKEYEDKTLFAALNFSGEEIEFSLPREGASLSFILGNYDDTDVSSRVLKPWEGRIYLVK

β-Mannosidase = conditions: Snail, cited from earlier work
α-L-Fucosidase = molecular target: T6, α-L-Fucosidase (Bos taurus, UniProt Q2KIM0); conditions: Bovine kidney, cited from earlier work
T6 construct: purchased Sigma-Aldrich Chemical Co; host or cells: bovine kidney
T6 sequence (Q2KIM0 23-468): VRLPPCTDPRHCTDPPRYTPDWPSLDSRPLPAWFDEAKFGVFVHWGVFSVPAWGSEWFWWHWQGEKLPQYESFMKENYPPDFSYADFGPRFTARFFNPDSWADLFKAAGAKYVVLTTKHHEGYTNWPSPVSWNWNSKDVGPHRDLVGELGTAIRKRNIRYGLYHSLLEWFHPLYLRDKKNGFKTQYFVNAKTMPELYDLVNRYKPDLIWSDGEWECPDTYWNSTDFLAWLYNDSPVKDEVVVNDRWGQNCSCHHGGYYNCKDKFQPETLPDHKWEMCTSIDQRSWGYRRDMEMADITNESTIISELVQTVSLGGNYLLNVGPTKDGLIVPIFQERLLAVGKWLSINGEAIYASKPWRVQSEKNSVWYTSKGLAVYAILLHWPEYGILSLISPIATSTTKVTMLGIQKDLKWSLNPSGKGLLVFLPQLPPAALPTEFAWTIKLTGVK

α-L-Rhamnosidase = molecular target: T7, α-L-Rhamnosidase (Penicillium decumbens, UniProt S7ZS15); conditions: P. decumbens, cited from earlier work
T7 sequence (S7ZS15 1-894): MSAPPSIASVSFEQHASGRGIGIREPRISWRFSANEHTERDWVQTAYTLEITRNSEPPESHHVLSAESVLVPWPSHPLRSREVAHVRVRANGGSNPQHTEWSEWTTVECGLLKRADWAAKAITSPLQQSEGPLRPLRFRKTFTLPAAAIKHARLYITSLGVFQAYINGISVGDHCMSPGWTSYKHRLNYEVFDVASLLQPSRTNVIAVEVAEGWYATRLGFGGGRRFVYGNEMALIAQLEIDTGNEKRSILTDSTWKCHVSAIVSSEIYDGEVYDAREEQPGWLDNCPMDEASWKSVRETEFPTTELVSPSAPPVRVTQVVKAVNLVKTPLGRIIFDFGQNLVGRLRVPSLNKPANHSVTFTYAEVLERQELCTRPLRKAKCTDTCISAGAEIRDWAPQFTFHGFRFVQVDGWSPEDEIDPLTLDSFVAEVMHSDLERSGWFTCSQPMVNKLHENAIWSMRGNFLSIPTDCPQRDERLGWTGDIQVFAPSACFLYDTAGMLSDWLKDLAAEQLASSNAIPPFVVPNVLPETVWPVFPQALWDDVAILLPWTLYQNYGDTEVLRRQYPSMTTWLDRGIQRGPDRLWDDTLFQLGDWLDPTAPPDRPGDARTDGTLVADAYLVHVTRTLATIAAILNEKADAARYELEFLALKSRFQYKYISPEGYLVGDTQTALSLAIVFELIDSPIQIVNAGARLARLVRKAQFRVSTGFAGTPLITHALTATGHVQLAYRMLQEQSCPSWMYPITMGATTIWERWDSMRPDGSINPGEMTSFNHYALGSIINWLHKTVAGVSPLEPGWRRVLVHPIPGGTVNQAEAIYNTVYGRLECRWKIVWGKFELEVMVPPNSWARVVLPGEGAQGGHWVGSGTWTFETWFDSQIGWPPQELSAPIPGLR

β-Glucosidase [3] = conditions: Almond, cited from earlier work; for inhibition %: at 1000 μM
α-Glucosidase [4] = molecular target: T8, α-Glucosidase (Oryza sativa subsp. japonica, UniProt Q653V7); conditions: Rice, cited from earlier work
T8 construct: purchased Sigma-Aldrich Chemical Co
T8 sequence (Q653V7 34-885): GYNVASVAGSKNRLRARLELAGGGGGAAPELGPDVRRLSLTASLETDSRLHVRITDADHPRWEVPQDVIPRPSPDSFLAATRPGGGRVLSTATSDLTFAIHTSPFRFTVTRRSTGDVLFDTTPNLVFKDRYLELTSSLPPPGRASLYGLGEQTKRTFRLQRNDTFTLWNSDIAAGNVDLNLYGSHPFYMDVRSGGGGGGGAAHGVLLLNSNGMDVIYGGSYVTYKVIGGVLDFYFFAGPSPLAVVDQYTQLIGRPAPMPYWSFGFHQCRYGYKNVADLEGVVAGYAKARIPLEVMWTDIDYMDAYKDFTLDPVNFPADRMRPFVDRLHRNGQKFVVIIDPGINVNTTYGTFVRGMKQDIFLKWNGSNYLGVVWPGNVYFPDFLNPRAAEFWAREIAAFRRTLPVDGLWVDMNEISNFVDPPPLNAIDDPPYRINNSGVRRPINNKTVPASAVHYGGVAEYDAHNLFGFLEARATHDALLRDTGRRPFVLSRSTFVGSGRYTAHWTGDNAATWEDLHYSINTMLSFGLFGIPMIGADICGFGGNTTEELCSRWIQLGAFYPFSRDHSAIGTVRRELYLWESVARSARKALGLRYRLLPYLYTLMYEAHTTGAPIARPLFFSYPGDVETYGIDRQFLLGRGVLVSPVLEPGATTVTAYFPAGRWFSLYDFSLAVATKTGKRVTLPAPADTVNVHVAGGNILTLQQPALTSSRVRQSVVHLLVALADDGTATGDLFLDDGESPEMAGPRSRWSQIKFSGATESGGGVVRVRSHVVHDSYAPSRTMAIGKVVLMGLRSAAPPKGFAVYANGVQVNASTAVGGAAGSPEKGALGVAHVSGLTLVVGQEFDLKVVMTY

Amyloglucosidase = molecular target: T9, Amyloglucosidase (Aspergillus niger, UniProt P69328); set-up: method as in PMID 21157573; conditions: A. niger, cited from earlier work
T9 construct: purchased Sigma-Aldrich Chemical Co
T9 sequence (P69328 25-640): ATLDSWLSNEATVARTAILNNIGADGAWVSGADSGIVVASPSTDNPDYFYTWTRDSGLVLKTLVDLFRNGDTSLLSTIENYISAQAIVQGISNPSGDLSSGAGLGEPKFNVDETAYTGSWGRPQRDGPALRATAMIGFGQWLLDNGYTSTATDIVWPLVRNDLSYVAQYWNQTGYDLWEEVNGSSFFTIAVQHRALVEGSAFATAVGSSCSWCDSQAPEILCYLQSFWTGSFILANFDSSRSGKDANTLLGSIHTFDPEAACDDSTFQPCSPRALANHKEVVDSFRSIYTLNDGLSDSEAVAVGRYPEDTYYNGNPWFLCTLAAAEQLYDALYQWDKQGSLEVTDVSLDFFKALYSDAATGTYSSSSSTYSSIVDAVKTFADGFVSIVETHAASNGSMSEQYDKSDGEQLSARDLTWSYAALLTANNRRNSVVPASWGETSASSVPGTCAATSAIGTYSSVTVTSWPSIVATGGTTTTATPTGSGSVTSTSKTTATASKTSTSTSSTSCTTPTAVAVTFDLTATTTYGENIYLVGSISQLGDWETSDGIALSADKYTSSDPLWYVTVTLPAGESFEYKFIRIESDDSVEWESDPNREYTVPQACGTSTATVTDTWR

β-glycosidase = system: β-glycosidase; set-up: method as in earlier work; conditions: cited from earlier work

Row | Structure (SMILES) | IC50 (Rat intestinal maltase) | IC50 (α-Mannosidase) | inhibition % (α-Mannosidase; at 1000 μM) | inhibition % (α-Galactosidase; at 1000 μM) | IC50 (β-Glucuronidase) | inhibition % (β-Glucuronidase) | IC50 (β-Galactosidase) | IC50 (α-Glucosidase [2]) | inhibition % (α-Glucosidase [2]) | IC50 (β-Mannosidase) | inhibition % (β-Mannosidase; at 1000 μM) | inhibition % (α-L-Fucosidase; at 1000 μM) | inhibition % (α-L-Rhamnosidase; at 1000 μM) | IC50 (β-Glucosidase [3]) | β-glycosidase inhibition (in words) (β-glycosidase) | other results
1 | OC[C@@H]1N[C@@H](CO)[C@H](O)[C@H]1O (single isomer, unassigned) [L-DMDP (ent-2)] | 1.2 µM | […] | 17.3% | 13.8% | […] | 0.8% | […] | […] | 34.9% | […] | 12.6% | […] | 45.6% | […] |  | inhibition % (β-Glucosidase [1]; at 1000 μM): 4.6%; inhibition % (β-Galactosidase; at 1000 μM): […]; inhibition % (β-Glucosidase [3]): 12.1%
2 | OC[C@@H]1N[C@H](CO)[C@@H](O)[C@@H]1O [D-gluco-DMDP] | 138 µM | […] | 13.3% | 38.4% | […] | 5.1% | […] | 167 µM |  | […] | 14.6% | 37.2% | 24.1% | 256 µM |  | 
3 | OC[C@H]1NC[C@@H](O)[C@@H]1O [DAB (1), 1,4-dideoxy-1,4-imino-D-arabinitol] |  |  |  |  |  |  | > 1000 µM | 0.15 µM |  | > 1000 µM |  |  |  | 250 µM |  | IC50 (α-Galactosidase): > 1000 µM; inhibition % (α-Galactosidase; at 1000 μM (per NI footnote)): 7%; IC50 (α-Glucosidase [4]): 250 µM; IC50 (β-Glucosidase [1]): 638 µM; inhibition % (β-Galactosidase; at 1000 μM (per NI footnote)): 37%; IC50 (Amyloglucosidase): 362 µM; inhibition % (β-Mannosidase; at 1000 μM (per NI footnote)): 10%; IC50 (α-L-Fucosidase): > 1000 µM; inhibition % (α-L-Fucosidase; at 1000 μM (per NI footnote)): 11%; inhibition % (α-L-Rhamnosidase; at 1000 μM (per NI footnote)): 5%
4 | OCC1NC(CO)C(O)C1O (stereo not shown) [DMDP (2), 2,5-dihydroxymethyl-3,4-dihydroxypyrrolidine] | 290 µM | […] | 31.5% | 10.5% | […] | 0.4% | […] | […] | 15.6% | 721 µM |  | 37.2% | 24.1% | 10 µM |  | 
5 | OC[C@@H]1N[C@@H](CO)[C@@H](O)[C@H]1O [L-altro-DMDP] | 754 µM | […] | 37.6% |  | […] | 2.0% | […] | […] | 35.1% | […] | 3.7% |  |  | […] |  | inhibition % (α-Glucosidase [4]; at 1000 μM): 9.5%; inhibition % (β-Glucosidase [1]; at 1000 μM): 10.3%; inhibition % (β-Galactosidase; at 1000 μM): […]; inhibition % (β-Glucosidase [3]): 15.9%
6 | OC[C@@H]1NC[C@H](O)[C@H]1O [LAB (ent-1), 1,4-dideoxy-1,4-imino-L-arabinitol] |  | > 1000 µM |  |  |  |  | > 1000 µM | 70 µM |  | > 1000 µM |  |  |  | > 1000 µM |  | inhibition % (α-Mannosidase; at 1000 μM (per NI footnote)): 0%; IC50 (α-Galactosidase): > 1000 µM; inhibition % (α-Galactosidase; at 1000 μM (per NI footnote)): 2%; IC50 (α-Glucosidase [4]): 3.2 µM; inhibition % (β-Glucosidase [1]; at 1000 μM (per NI footnote)): 13%; inhibition % (β-Galactosidase; at 1000 μM (per NI footnote)): 16%; IC50 (Amyloglucosidase): > 1000 µM; inhibition % (Amyloglucosidase; at 1000 μM (per NI footnote)): 41%; inhibition % (β-Mannosidase; at 1000 μM (per NI footnote)): 1%; IC50 (α-L-Fucosidase): > 1000 µM; inhibition % (α-L-Fucosidase; at 1000 μM (per NI footnote)): 0%
7 | O=C(CCCO)CCCCCCCC[C@@H](O)[C@H]1N[C@H](CO)[C@@H](O)[C@@H]1O [compound 4, broussonetine E] |  |  |  |  |  |  |  |  |  |  |  |  |  |  | potent β-glycosidase inhibition | 
8 | O=C(CCCCO)CCCCCCC[C@@H](O)[C@H]1N[C@H](CO)[C@@H](O)[C@@H]1O [compound 5, broussonetine F] |  |  |  |  |  |  |  |  |  |  |  |  |  |  | potent β-glycosidase inhibition | 
9 | OCC1NC(C(O)CCCCC2CCCC3(CCCO3)O2)C(O)C1O (stereo not shown) [compound 6, broussonetine G] |  |  |  |  |  |  |  |  |  |  |  |  |  |  | potent β-glycosidase inhibition | 
